Measurements taken from patent US20210346665A1, “CONDUCTIVE MICRONEEDLE PATCH FOR ACTIVE AGENT DELIVERY” (Singapore Health Services Pte Ltd, priority 2018, published 2021).
Counter-ions that a name gives are not always drawn.

Experiment: drug loading and release from MeHA MN patches in PBS
Format: physicochemical
Protocol: The drug loading capabilities of MeHA MNs was investigated by using model drugs of different molecular weights, mainly fluorescein isothiocyanate (FITC), FITC-Dextran and doxorubicin hydrochloride (Dox). The innate ability of the MeHA MN arrays to absorb fluid is taken advantage of to load the drug molecules into the MN tips. All three drugs are dissolved in PBS which were then used to equilibrate MeHA MN patches. After 10 minutes of incubation with the drug solution, the MNs were left to dry in the fumehood (FIG. 14). The amount of drug encapsulated in the MN was determined by immersing the drug loaded MeHA in 1×PBS. By obtaining a 50 μL of the solution at various time points, the fluorescence intensity was measured to determine the drug release profile of the three different drug molecules.
Next, the release profiles of drugs from the MeHA MN patches were examined.

Row | Molecule | released from the MN patches (MeHA MN patches, 1×PBS, within 30 minutes) [%] | loading into the MN tips through swelling (MeHA MN, 10 minutes incubation with drug solution in PBS)
1 | COc1cccc2c1C(=O)c1c(O)c3c(c(O)c1C2=O)C[C@@](O)(C(=O)CO)C[C@@H]3O[C@H]1C[C@H](N)[C@H](O)[C@H](C)O1 [Dox, doxorubicin hydrochloride] | 50 | –
2 | fluorescein isothiocyanate [FITC] | – | easily loaded
